Measured values: patent US20250325670A1, “NOVEL BORON AGENT” (priority 2021, published 2025)

Key:
[1] = tested on: F98 malignant glioblastoma; assay: BNCT therapeutic effect (survival time) in F98 malignant glioblastoma cell-implanted rat brain tumor model; format: in vivo; conditions: after tumor implantation; BNCT with BPA (iv) or PBC-IP (CED)
Method: Three hours after administration of PBC-IP (CED), neutron irradiation was carried out to verify the therapeutic effect of neutron capture therapy (FIG. 7). The brain tumor models were divided into an untreated group, a neutron irradiation only group, a BNCT with BPA (iv) group, a BNCT with local administration of PBC-IP (CED) group, and a PBC-IP (CED) plus BPA (iv) group to carry out a treatment experiment, and the survival times after tumor implantation were compared. The therapeutic effect of intravenous BPA as a control for BNCT treatment represented a significant prolongation of survival time with a median survival time of 37 days. […] The effect was even higher in the group that received treatment with PBC-IP (CED) […] plus intravenous BPA, indicating the antitumor effect of PBC-IP on a BPA-refractory tumor site. In the C6-implanted rat brain tumor model, the tumor boron concentration by PBC-IP (CED) was about 36 ppm, which was higher than that for F98.
In a BNCT experiment, 14 days after implantation of 10^3 F98 malignant glioblastoma cells, neutron irradiation was carried out by using KURRI. Malignant glioblastoma cell-bearing rats were randomly divided into 5 groups (groups 1 to 5) so that each group consisted of 6 to 10 rats. […] The therapeutic effect was evaluated by the survival times of all rats.

[2] = Changes in body weight after BNCT irradiation; format: in vivo, mouse; conditions: 25 mg (10B)/kg iv, neutron irradiated
Method: As described in (A), the U-87 MG tumor-bearing mice were injected with 200 μL of a PBS solution of a boron compound (PBC-IP-HSA, L-BPA: 25 mg (^10B)/kg for each) through the tail vein. The whole mouse was placed in an acrylic mouse holder and fixed to a thermoplastic plate having a thickness of 5 mm. Three hours (L-BPA) or six hours (PBC-IP-HSA) after administration, the right thigh of the mouse was irradiated with a neutron in a dose range of 4.5 to 6.1×10^12 neutrons/cm^2 in the KUR reactor. The BNCT effect was evaluated based on the changes in tumor volume in the mouse (FIG. 4B). In order to determine the tumor volume, two perpendicular diameters of the tumor were measured with slide calipers and calculated by using the spherical volume expression {4/3π×(R/2)^3}. Here, R is the average of the longest dimension and the shortest dimension (each in millimeters) of the tumor.
In the irradiation experiment carried out in (B), changes in body weight after irradiation were measured.

[3] = tested on: A549, U87MG, C6, F98 cells; assay: Intracellular boron accumulation in various cells (ICP-AES); format: cell-based, human, rat; conditions: 5 μg B/mL
Method: F98 rat malignant glioblastoma cells were provided by Dr. Rolf Barth (Department of Pathology, The Ohio State University, Columbus, OH, US) and were cultured at 37° C. in 5% CO^2 by using Dulbecco's modified Eagle's medium (DMEM) supplemented with 10% fetal bovine serum (FBS) and 10% penicillin/streptomycin/amphotericin B. The F98 rat malignant glioblastoma cells were histologically characterized as anaplastic astrocytoma.
First, 5×10^5 cells were placed in a 100 mm dish (Becton Dickinson, Franklin Lakes, New Jersey) and cultured at 37° C. in 5% CO2 by using the medium described above. […] After that, the medium containing the boron compound was removed, and the cells were washed twice with 4% phosphate buffered saline (PBS) and then detached with a trypsin-ethylenediaminetetraacetic acid solution. After that, a medium was added, centrifugation (200×g, 5 minutes) was carried out twice, and cells were counted and finally sedimented. After that, the cells were digested with a 1 N nitric acid solution (Wako Pure Chemical Industries, Osaka Japan) overnight, and the amount of boron taken up was measured by inductively coupled plasma-atomic emission spectroscopy (ICP-AES) using an iCAP6300 emission spectrometer (Hitachi High-Technologies, Tokyo, Japan).

A549 cells (FRα(−)) = assay: BNCT antitumor effect in vitro (thermal neutron irradiation, MTT survival rate); format: cell-based, human; conditions: 25 ppm 10B, 3 hours, thermal neutron dose-dependent, MTT after 96 hours
Method: (A) Human brain tumor cell U87MG (FRα(+)), (B) human lung cancer cell A549 (FRα(−)). The cells were cultured for 3 hours with an agent ^10B at a concentration of 25 ppm, followed by removal of the agent and irradiated.
Cells (A549 1000 cells/well or U-87 MG 500 cells/well) seeded in a 96 well plate were cultured together with PBC-IP and L-BPA-fructose at a concentration of 25 ppm [^10B] at 37° C. for 3 hours, and then unilaterally irradiated with thermal neutrons from one side of the plate for 12 minutes. Subsequently, the medium was replaced, the cells were cultured for 96 hours, and then an MTT assay was carried out to evaluate the survival rate of the cells (FIG. 3). The thermal neutron irradiation was carried out by using the irradiation facility of the Institute for Integrated Radiation and Nuclear Science, Kyoto University (KUR), and the cells after irradiation were cultured in the controlled area of KUR. In addition, the survival rate is calculated based on the following expression.

## N[C@@H](Cc1ccc(B(O)O)cc1)C(=O)O [BPA]
[1]
  median survival time: 37 days
[2]
  changes in body weight after irradiation compared with the control group: no significant difference
[3]
  selective accumulation among the four types of cells: selective accumulation in the A549 cells
A549 cells (FRα(−))
  BNCT antitumor effect (cell survival rate): higher BNCT antitumor effect
